Columns and labels:
UM-UC-3 = settings: FLIPR
Experimental: (§1) On the day when the assay was conducted, various test samples were added to the cells and the changes of intracellular calcium levels in this case were determined by FLIPR (Molecular Device). In order to determine the changes in intracellular calcium levels on FLIPR, the cells were pre-treated by the following procedures. First, for the purpose of adding a fluorescent dye Fluo-3AM (DOJIN) to the cells or washing the cells immediately before the FLIPR assay, an assay buffer was prepared. A solution was prepared by adding 20 ml of 1M HEPES (pH 7.4) (DOJIN) to 1000 ml of HBSS (Invitrogen Corp.) (hereinafter HBSS/HEPES solution), to which solution was added 10 ml of a solution mixture obtained by dissolving 710 mg of Probenecid (Sigma) in 5 ml of 1N NaOH and further adding 5 ml of HBSS/HEPES solution thereto. The resulting solution was used as the assay buffer. Next, 50 μg of Fluo-3AM was dissolved in 21 μl of DMSO (DOJIN) and an equal volume of 20% Pluronic acid (Molecular Probes) was added to and mixed with the solution. The mixture was then added to 10.6 ml of the assay buffer supplemented with 105 μl of fetal calf serum to prepare a fluorescent dye solution. The medium for the CHO cells where human GPR39 was stably expressed was removed. […] Following the pre-treatment above, the changes in intracellular calcium levels after the addition of each test sample were determined by FLIPR. […]

HT-1197 = settings: FLIPR
Experimental: as §1

Compound: [Cl][Ni][Cl] [nickel chloride]
- reaction (change in intracellular calcium levels) in UM-UC-3 (UM-UC-3): a reaction with nickel was detected
- reaction (change in intracellular calcium levels) in HT-1197 (HT-1197): a reaction with nickel was detected

Reference: patent US7972800B2, “Screening method for binding property or signal transduction alterations” (Takeda Pharmaceutical Company Limited, priority 2003, dated 2011)
